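Results reflect a 48-hour exposure of cells in 96-well plates to compound at five concentrations. GI50 marks 50% less growth. TGI: concentration producing complete growth inhibition.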

This experiment concerns MDA-MB-468 breast. Briefly: DTP human tumour cell line panel, 48 h.

As a reminder, the GI50 is the concentration at which growth is held to half of that of the control. The term TGI denotes the concentration giving total growth inhibition. A lower TGI goes with more potent growth arrest. Take `CC1=C(SCCC(=O)OC(C[Se]C2=C(C)C(=O)c3ccccc3C2=O)C(=O)NC(C)(C)C)C(=O)c2ccccc2C1=O` (configuration not stated): the 50% growth inhibitory concentration (GI50) is 226 nM and the TGI is 657 nM.
For the molecule `C[C@@H](C[C@H](CCO)c1ccccc1)c1ccc2ccccc2c1`, the GI50 is 1530 nM and the TGI was 2980 nM.
As for `Cc1nc2sc(C(=O)Nc3ccccc3)c(N)c2cc1C(=O)c1ccccc1`, the GI50 is 2590 nM and the TGI was 28900 nM.
On to `Cc1c2ccccc2c(C)n2c1nc1cc(Cl)c(Cl)cc12`, for which the GI50 is 27600 nM and the TGI was greater than 100000 nM.
The matching figures for `COC(=O)Nc1nc2ccc(C(=O)c3cccs3)cc2[nH]1`: 161 nM and greater than 100000 nM.
Take `COc1cc2c(=O)n(CC3CCCCC3)c3c4cc[nH]c4ncc3c2cc1OC`: the GI50 is 4610 nM and the TGI stood at 25600 nM.
As for `CS(=O)(=O)CCNCc1ccoc1-c1ccc2ncnc(Nc3ccc(OCc4ccccc4)cc3)c2c1`, the GI50 is 506 nM and the total growth inhibition concentration (TGI) turned out to be 4490 nM.
In the case of `N=C1C=C(N)C(=O)c2ccccc21`, the GI50 was 112 nM and the TGI was 248 nM.
As for `CC(C)(C)CC(C)(C)NCC(O)COc1ccc(C(C)(C)c2ccc(OCC(O)CNC(C)(C)CC(C)(C)C)cc2)cc1` (configuration not stated), the GI50 was 1310 nM and the total growth inhibition concentration (TGI) worked out at 2770 nM.
The like results for `CCOC(=O)N(O)c1ccc(/C=C/c2ccccc2)cc1` were, in that order, 25 nM and 90.8 nM.
`CCCCCCCCc1cc(O)ccc1O`: the GI50 is 11300 nM and the TGI worked out at 28600 nM.
As to `NC1=C(O)C(=O)C(c2c[nH]c3ccc(OCc4ccccc4)cc23)O1` (configuration not stated), the GI50 is greater than 100000 nM and the TGI was greater than 100000 nM.
Regarding `N=C(N)c1ccc(-c2ccc(-c3ccc(Cl)cc3Cl)s2)nc1`, the GI50 was 1720 nM and the TGI came out at 3410 nM.
Consider `CNC(=O)c1cc(-c2ccc(F)cc2)cc(-c2ccc(S(=O)(=O)N3CCCC3)cc2)c1N`, for which the GI50 is 5480 nM and the TGI was greater than 25000 nM.
On to `CNc1nc(-c2ccc3c(N)n[nH]c3c2)cc(N2C[C@@H](C(=O)NC3CCCCC3)CC[C@H]2C)n1`, for which the GI50 is 270 nM and the TGI worked out at 2440 nM.
Consider `COc1ccc(F)cc1-c1ccnc2[nH]c(C3=CCN(C4CCC(CC(=O)O)CC4)CC3)cc12` (configuration not stated), for which the GI50 was 77.9 nM and the total growth inhibition concentration (TGI) was determined as 444 nM.
For `CC(C)(C)c1ccc(CC(=O)Nc2sc3c(c2C(N)=O)CCC(=O)C3)cc1`, the GI50 is 1380 nM and the TGI was 3720 nM.
For the molecule `CN(C)CCOc1ccc2c(c1)C(=O)/C(=C\c1ncc([N+](=O)[O-])n1C)C2`, the GI50 was 188 nM and the TGI amounted to 516 nM.
Regarding `O=C(N/N=C/c1ccc(N(CCCl)CCCl)cc1)c1ccc(C(=O)N/N=C/c2ccc(N(CCCl)CCCl)cc2)cc1`, the GI50 is 1600 nM and the concentration for total growth inhibition (TGI) amounted to 80600 nM.
`c1ccc2c(NCCCN3CCOCC3)c3oc4ccccc4c3nc2c1`: the GI50 was 1360 nM and the TGI was 3400 nM.
Turning to `Cn1cc(-c2csc(-c3cn(C(=O)OC(C)(C)C)c4ccccc34)n2)c2cccnc21`, the GI50 was 865 nM and the TGI was 12300 nM.
Take `c1ccc(-c2cc3n4c(-c5ccccc5)nn(-c5ccccc5)c4cnc-3n2)cc1`: the GI50 is 4380 nM and the TGI is greater than 50000 nM.
`C[C@@H]1Cc2c(ccc3[nH]ncc23)[C@@H](c2ccc(NC3CN(CCCF)C3)cn2)N1CC(F)(F)F`: the GI50 is 13400 nM and the TGI came out at 27800 nM.
Take `CC[C@@H](C(=O)[C@@H](C)[C@@H](O)[C@H](C)[C@@H]1O[C@@H]([C@@H](CC)C(=O)O)CC[C@@H]1C)[C@H]1O[C@]2(C=C[C@@H](O)[C@]3(CC[C@@](C)([C@H]4CC[C@](O)(CC)[C@H](C)O4)O3)O2)[C@H](C)C[C@@H]1C`: the GI50 is 197 nM and the TGI is 2440 nM.
`COc1ccc(C2C3=C(COC3=O)N(CCO)c3cc4c(cc32)CCC4)cc1` (configuration not stated): the GI50 is 1360 nM and the concentration for total growth inhibition (TGI) worked out at 5330 nM.
Regarding `COC(=O)[C@@H](C)C[C@H](Cc1ccccc1)NC(=O)c1csc([C@@H](C[C@H](C(C)C)N(C)C(=O)[C@@H](NC(=O)[C@H]2CCCCN2C)C(C(F)(F)F)C(F)(F)F)OC(C)=O)n1`, the GI50 was 21.3 nM and the total growth inhibition concentration (TGI) was greater than 16700 nM.
As for `COC(=O)c1cc(C)[nH]c2c(C)cc3nc4ccccc4c3c12`, the GI50 is 3760 nM and the TGI amounted to 12300 nM.
On to `CSc1nc2ccc(C)cc2cc1/C=C1/C=C(c2ccccc2)NC1=O`, for which the GI50 was 5770 nM and the TGI came out at 61300 nM.
Regarding `COc1ccc(S(=O)(=O)Nc2cc(Sc3cccc4cccnc34)c(O)c3ccccc23)cc1`, the GI50 was 1150 nM and the TGI is 3120 nM.
With `O=S(=O)(Nc1ccc(Cl)c(Cl)c1)c1ccc(-c2cnc(C3CC3)o2)cc1`, the GI50 was 222 nM and the TGI came out at 736 nM.
Consider `C=Cc1cc(OC)c2c(c1)c(=O)oc1c2cc(OC)c2c(O)ccc(C3OC(C(C)O)C(O)C3O)c21` (configuration not stated), for which the GI50 was 4.91 nM and the TGI is greater than 1000 nM.

These data come from PubChem BioAssay (NCI).
